Measured values published in paper PMC3459575 (Clinical Interventions in Aging, 2012).

How the values were obtained:
5α-reductase type 2 = target: T1, 5α-reductase type 2 (Homo sapiens, UniProt P31213); type: cell-based
T1 sequence (P31213 1-254): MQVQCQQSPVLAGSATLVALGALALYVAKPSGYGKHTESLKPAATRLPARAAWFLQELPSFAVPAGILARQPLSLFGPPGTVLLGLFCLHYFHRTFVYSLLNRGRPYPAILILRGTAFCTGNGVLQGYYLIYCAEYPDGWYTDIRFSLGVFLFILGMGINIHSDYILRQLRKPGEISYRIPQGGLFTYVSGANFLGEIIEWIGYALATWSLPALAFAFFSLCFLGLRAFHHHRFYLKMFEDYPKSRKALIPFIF

5α-reductase type 1 = target: T2, 5α-reductase type 1 (Homo sapiens, UniProt P18405); type: cell-based
T2 sequence (P18405 1-259): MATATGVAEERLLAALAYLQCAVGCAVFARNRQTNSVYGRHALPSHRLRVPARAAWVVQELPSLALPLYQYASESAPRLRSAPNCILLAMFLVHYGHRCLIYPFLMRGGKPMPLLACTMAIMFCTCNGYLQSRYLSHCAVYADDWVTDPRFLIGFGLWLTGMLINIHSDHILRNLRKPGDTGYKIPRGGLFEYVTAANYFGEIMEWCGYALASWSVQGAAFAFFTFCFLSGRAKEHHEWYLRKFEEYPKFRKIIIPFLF

IC50 (5α-reductase type 2): ~100 nM
IC50 (5α-reductase type 1): ~800 nM
Structure (SMILES): CC(C)(C)NC(=O)[C@H]1CC[C@H]2[C@@H]3CC[C@H]4NC(=O)C=C[C@]4(C)[C@H]3CC[C@]12C [finasteride]
